Read-outs that look alike come from different tables or passages of the source. Starred links: 1 amine or outer side, 2 acyl side, 3 side chain; linkers in the order of their positions; H or OH if unused. Non-standard residues stand in square brackets, D forms with d. Residues, ends and D or L forms follow the SMILES beside them. His(π-(CH2)8Ph) = N[C@@H](Cc1cncn1CCCCCCCCc1ccccc1)C(=O)O; X2 = O=C([C@@H](N[*:1])[C@@H](CCc1ccccc1)CP(=O)(O)O)[*:2]; X1 = CC(C)[C@@H](CP(=O)(O)O)[C@H](N[*:1])C(=O)[*:2]; X3 = CC[C@@H](CP(=O)(O)O)[C@H](N[*:1])C(=O)[*:2]; Abu(4-PO3H2) = N[C@@H](CCP(=O)(O)O)C(=O)O
Experiments:
Plk1 = conditions: cited from earlier work
Plk3 PBD = target: T1, Plk3 PBD (Homo sapiens, UniProt Q9H4B4); type: binding
T1 sequence (Q9H4B4 335-646 limits assumed): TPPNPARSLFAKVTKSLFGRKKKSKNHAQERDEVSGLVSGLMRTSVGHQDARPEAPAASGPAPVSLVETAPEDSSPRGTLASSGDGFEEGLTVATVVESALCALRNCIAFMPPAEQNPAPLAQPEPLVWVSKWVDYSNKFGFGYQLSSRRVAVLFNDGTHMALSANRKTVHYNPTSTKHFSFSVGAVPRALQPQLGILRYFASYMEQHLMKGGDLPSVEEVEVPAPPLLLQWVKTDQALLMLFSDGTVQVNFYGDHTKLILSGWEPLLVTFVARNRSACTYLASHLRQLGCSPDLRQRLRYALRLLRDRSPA

full-length Plk1 = full-length Plk1 (Homo sapiens, UniProt P53350); type: binding; conditions: for more potent than the parent pThr-containing peptide 5 and its Pmab-containing congener 7 / loss of potency of the Ser to Ala variants relative to 21 and 23: full-length Plk1 competitive ELISA
Plk1 PBD = Plk1 PBD (Homo sapiens, UniProt P53350); type: binding
Plk2 PBD = target: T2, Plk2 PBD (Homo sapiens, UniProt Q9NYY3); type: binding
T2 sequence (Q9NYY3 355-685 limits assumed): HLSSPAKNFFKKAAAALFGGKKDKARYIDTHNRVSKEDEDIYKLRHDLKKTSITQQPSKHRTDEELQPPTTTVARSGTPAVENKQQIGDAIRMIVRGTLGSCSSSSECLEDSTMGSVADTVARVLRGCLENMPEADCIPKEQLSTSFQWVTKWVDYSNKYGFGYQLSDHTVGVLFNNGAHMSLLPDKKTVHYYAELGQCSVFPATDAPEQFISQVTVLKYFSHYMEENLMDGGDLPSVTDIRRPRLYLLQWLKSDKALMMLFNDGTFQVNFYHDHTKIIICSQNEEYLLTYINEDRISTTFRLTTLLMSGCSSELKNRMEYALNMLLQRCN

[1] = full-length Plk1, competitive ELISA, average ± SEM (n = 5)

Chain of Plk1 PBD (P53350 326-603 limits assumed): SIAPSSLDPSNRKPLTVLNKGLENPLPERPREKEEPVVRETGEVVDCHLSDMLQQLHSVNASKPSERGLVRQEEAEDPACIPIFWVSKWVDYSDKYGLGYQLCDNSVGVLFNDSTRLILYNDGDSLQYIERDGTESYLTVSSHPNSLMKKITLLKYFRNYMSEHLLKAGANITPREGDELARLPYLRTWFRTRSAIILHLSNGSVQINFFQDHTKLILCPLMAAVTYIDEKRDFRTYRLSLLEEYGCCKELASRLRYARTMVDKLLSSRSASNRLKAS
Chain of full-length Plk1 (P53350 whole entry): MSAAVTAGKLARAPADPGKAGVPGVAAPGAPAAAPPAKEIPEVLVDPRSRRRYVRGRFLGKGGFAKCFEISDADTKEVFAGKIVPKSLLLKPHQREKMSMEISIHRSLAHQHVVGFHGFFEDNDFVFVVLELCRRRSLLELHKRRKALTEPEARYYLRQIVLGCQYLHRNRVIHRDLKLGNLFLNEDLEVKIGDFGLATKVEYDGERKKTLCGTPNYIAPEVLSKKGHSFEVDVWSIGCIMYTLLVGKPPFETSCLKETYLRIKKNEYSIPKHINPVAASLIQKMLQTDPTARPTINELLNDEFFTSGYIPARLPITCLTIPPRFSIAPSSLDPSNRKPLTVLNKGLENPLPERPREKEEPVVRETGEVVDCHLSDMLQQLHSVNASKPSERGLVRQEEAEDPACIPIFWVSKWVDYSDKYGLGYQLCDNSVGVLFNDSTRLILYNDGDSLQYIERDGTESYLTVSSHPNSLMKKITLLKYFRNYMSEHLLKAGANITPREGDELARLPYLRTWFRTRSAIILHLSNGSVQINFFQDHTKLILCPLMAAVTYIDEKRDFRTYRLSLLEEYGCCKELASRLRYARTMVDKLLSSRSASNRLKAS

SMILES	IC50 (Plk3 PBD)	IC50 (full-length Plk1)	IC50 (Plk1 PBD)	IC50 (Plk2 PBD)	other results
CC(=O)N1CCC[C@H]1C(=O)N[C@@H](CC(C)C)C(=O)N[C@@H](Cc1cncn1CCCCCCCCc1ccccc1)C(=O)N[C@@H](CO)C(=O)N[C@H](C(N)=O)[C@@H](C)OP(=O)(O)O [compound 5]	–	–	–	–	IC50 values in competitive ELISA assays against Plk1 (Plk1): low-nanomolar
CC(=O)N1CCC[C@H]1C(=O)N[C@@H](CC(C)C)C(=O)N[C@@H](Cc1cncn1CCCCCCCCc1ccccc1)C(=O)N[C@@H](CO)C(=O)N[C@H](C(N)=O)[C@@H](C)CP(=O)(O)O [compound 7, reference compound]	4400 nM	–	–	–	inhibitory potency on replacement of the pThr residue in 5 with Pmab (Plk1): complete retention of inhibitory potency
CC(=O)N1CCC[C@H]1C(=O)N[C@@H](CC(C)C)C(=O)N[C@@H](Cc1cncn1CCCCCCCCc1ccccc1)C(=O)N[C@@H](CO)C(=O)N[C@@H](CCP(=O)(O)O)C(N)=O [compound 19] (Ac-PL[His(π-(CH2)8Ph)]S[Abu(4-PO3H2)]-NH2; N-terminus and C-terminus assumed)	8800 nM	1200 ± 300 nM	11 ± 1 nM	5400 nM	–
CC[C@@H](CP(=O)(O)O)[C@H](NC(=O)[C@H](CO)NC(=O)[C@H](Cc1cncn1CCCCCCCCc1ccccc1)NC(=O)[C@H](CC(C)C)NC(=O)[C@@H]1CCCN1C(C)=O)C(N)=O [compound 20] (Ac-PL[His(π-(CH2)8Ph)]S[X3]-NH2; N-terminus and C-terminus assumed)	–	200 ± 60 nM	–	–	–
CC(=O)N1CCC[C@H]1C(=O)N[C@@H](CC(C)C)C(=O)N[C@@H](Cc1cncn1CCCCCCCCc1ccccc1)C(=O)N[C@@H](CO)C(=O)N[C@H](C(N)=O)[C@H](CP(=O)(O)O)C(C)C [compound 21] (Ac-PL[His(π-(CH2)8Ph)]S[X1]-NH2; N-terminus and C-terminus assumed)	1100 nM	60 ± 20 nM	7 ± 1 nM	360 ± 30 nM	more potent than the parent pThr-containing peptide 5 and its Pmab-containing congener 7 (full-length Plk1): approximately 3 fold
CC(=O)N1CCC[C@H]1C(=O)N[C@@H](CC(C)C)C(=O)N[C@@H](Cc1cncn1CCCCCCCCc1ccccc1)C(=O)N[C@@H](CO)C(=O)N[C@H](C(N)=O)[C@@H](CCc1ccccc1)CP(=O)(O)O [compound 23] (Ac-PL[His(π-(CH2)8Ph)]S[X2]-NH2; N-terminus and C-terminus assumed)	1200 nM	–	4 ± 1 nM	490 ± 50 nM	more potent than the parent pThr-containing peptide 5 and its Pmab-containing congener 7 (full-length Plk1): approximately 3 fold
CC(=O)N1CCC[C@H]1C(=O)N[C@@H](CC(C)C)C(=O)N[C@@H](Cc1cncn1CCCCCCCCc1ccccc1)C(=O)N[C@@H](C)C(=O)N[C@H](C(N)=O)[C@H](CP(=O)(O)O)C(C)C [compound 24] (Ac-PL[His(π-(CH2)8Ph)]A[X1]-NH2; N-terminus and C-terminus assumed)	–	–	–	–	IC50 (full-length Plk1; [1]): 11000 ± 3000 nM; loss of potency of the Ser to Ala variants relative to 21 and 23 (full-length Plk1): approximate two orders-of-magnitude loss of potency
CC(=O)N1CCC[C@H]1C(=O)N[C@@H](CC(C)C)C(=O)N[C@@H](Cc1cncn1CCCCCCCCc1ccccc1)C(=O)N[C@@H](C)C(=O)N[C@H](C(N)=O)[C@@H](CCc1ccccc1)CP(=O)(O)O [compound 25] (Ac-PL[His(π-(CH2)8Ph)]A[X2]-NH2; N-terminus and C-terminus assumed)	–	–	–	–	IC50 (full-length Plk1; [1]): 70000 ± 14000 nM; loss of potency of the Ser to Ala variants relative to 21 and 23 (full-length Plk1): approximate two orders-of-magnitude loss of potency
